The subject of experiment [1] is implanted invasive glioblastoma spheroids or gliobastomas PDXs. The arrangement: method as in PMID 28270132. The conditions noted are these: 100 mg/kg; cited from earlier work.
For another experiment, the target named is T1, PIK3CA (Homo sapiens, UniProt P42336).
T1 construct: purchased DiscoveRx KINOMEscan
Nature of the experiment: KINOMEscan. Format: binding. The conditions noted are these: read-out: % Ctrl.

The next experiment relates to PDAC2 cells. Nature of the experiment: CD133 flow cytometry. The following applies: 1.25 or 2.5 µM, 72 h. Format: cell-based, human. As for the experimental part:
Cells were analyzed with a 4-laser Attune NxT Acoustic Cytometer (ThermoFisher Scientific). […] For lysosomes quantification, Acridine Orange (AO) (A1301, Thermo Fisher Scientific, Waltham, MA, USA) or Lysotracker Deep Red (DR) (L12492, Molecular probes, Life Technologies, Waltham, MA, USA) were used. AO fluorescence was assessed with two combinations of excitation and emission spectra: BL1 (Ex488/Em695/40, equal to the far-red channel (>670 nm)) and BL3 (Ex488/Em695/40, equal to the far-red channel (>670 nm)) Lysotracker DR fluorescence was assessed with RL1 (Ex638/Em670/14). […] For all assays, DAPI was used to mark and exclude dead cells, and data were analyzed using the software FlowJo v9.3 (Tree Star Inc., Ashland, OR, USA).
Figure S3. […] Apoptosis was determined 72 h post treatment initiation. […]
On the technique in general: Flow cytometry measures light scatter and fluorescence of single cells or particles in a stream.

The target in another experiment is T2, NEK7 (Homo sapiens, UniProt Q8TDX7).
T2 construct: purchased DiscoveRx KINOMEscan
T2 sequence (Q8TDX7 whole entry): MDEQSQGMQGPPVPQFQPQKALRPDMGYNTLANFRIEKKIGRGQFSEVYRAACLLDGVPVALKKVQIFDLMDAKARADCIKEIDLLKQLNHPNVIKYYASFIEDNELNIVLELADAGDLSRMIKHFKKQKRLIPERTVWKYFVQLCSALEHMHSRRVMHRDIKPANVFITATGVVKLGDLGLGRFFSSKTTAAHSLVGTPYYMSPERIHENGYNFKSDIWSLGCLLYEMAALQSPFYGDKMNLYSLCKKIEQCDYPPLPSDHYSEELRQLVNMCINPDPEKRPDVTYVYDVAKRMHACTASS
Nature of the experiment: KINOMEscan. Format: binding. The following applies: read-out: % Ctrl.

A further experiment deals with T3, ABL1(F317L)-P (Homo sapiens, UniProt P00519, F317L).
T3 construct: purchased DiscoveRx KINOMEscan
Nature of the experiment: KINOMEscan. Format: binding. The following applies: read-out: % Ctrl.

For another experiment, the target named is T4, SNARK (Homo sapiens, UniProt Q9H093).
T4 construct: purchased DiscoveRx KINOMEscan
Nature of the experiment: KINOMEscan. The following applies: read-out: % Ctrl. Format: binding.

In another experiment the target is T5, MLCK (Homo sapiens, UniProt Q32MK0).
T5 construct: purchased DiscoveRx KINOMEscan
Nature of the experiment: KINOMEscan. Format: binding. The following applies: read-out: % Ctrl.

A further experiment deals with PIM3 (Homo sapiens, UniProt Q86V86). Nature of the experiment: KINOMEscan. The conditions noted are these: read-out: % Ctrl. Format: binding. The arrangement: purchased DiscoveRx KINOMEscan.
A further experiment has as its target T6, JAK1(JH1D.-cat.) (Homo sapiens, UniProt P23458).
T6 construct: JAK1(JH1D.-cat.); purchased DiscoveRx KINOMEscan
Nature of the experiment: KINOMEscan. Format: binding. The conditions noted are these: read-out: % Ctrl.

Another experiment has as its target T7, LOK (Homo sapiens, UniProt O94804).
T7 construct: purchased DiscoveRx KINOMEscan
Nature of the experiment: KINOMEscan. The following applies: read-out: % Ctrl. Format: binding.

In the next experiment the target is T8, DDR1 (Homo sapiens, UniProt Q08345).
T8 construct: purchased DiscoveRx KINOMEscan
Nature of the experiment: KINOMEscan. The conditions noted are these: read-out: % Ctrl. Format: binding.

The target of a further experiment is T9, NEK6 (Homo sapiens, UniProt Q9HC98).
T9 construct: purchased DiscoveRx KINOMEscan
T9 sequence (Q9HC98 whole entry): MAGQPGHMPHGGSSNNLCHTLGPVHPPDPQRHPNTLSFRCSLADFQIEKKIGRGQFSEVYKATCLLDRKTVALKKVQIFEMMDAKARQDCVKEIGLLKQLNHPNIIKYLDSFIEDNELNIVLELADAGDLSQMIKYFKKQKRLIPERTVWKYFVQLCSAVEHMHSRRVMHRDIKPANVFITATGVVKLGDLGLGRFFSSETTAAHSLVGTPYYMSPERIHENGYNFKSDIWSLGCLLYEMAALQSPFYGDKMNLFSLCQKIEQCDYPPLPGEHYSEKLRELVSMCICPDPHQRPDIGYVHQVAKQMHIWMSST
Nature of the experiment: KINOMEscan. Format: binding. The following applies: read-out: % Ctrl.

The target of another experiment is T10, SIK2 (Homo sapiens, UniProt Q9H0K1).
T10 construct: purchased DiscoveRx KINOMEscan
Nature of the experiment: KINOMEscan. The conditions noted are these: read-out: % Ctrl. Format: binding.

For another experiment, the target named is T11, NEK3 (Homo sapiens, UniProt P51956).
T11 construct: purchased DiscoveRx KINOMEscan
Nature of the experiment: KINOMEscan. The following applies: read-out: % Ctrl. Format: binding.

The target in another experiment is T12, EPHB3 (Homo sapiens, UniProt P54753).
T12 construct: purchased DiscoveRx KINOMEscan
Nature of the experiment: KINOMEscan. Format: binding. The following applies: read-out: % Ctrl.

A further experiment deals with T13, RET (Homo sapiens, UniProt P07949).
T13 construct: purchased DiscoveRx KINOMEscan
Nature of the experiment: KINOMEscan. Format: binding. The following applies: read-out: % Ctrl.

For another experiment, the target named is T14, LIMK1 (Homo sapiens, UniProt P53667).
T14 construct: purchased DiscoveRx KINOMEscan
T14 sequence (P53667 whole entry): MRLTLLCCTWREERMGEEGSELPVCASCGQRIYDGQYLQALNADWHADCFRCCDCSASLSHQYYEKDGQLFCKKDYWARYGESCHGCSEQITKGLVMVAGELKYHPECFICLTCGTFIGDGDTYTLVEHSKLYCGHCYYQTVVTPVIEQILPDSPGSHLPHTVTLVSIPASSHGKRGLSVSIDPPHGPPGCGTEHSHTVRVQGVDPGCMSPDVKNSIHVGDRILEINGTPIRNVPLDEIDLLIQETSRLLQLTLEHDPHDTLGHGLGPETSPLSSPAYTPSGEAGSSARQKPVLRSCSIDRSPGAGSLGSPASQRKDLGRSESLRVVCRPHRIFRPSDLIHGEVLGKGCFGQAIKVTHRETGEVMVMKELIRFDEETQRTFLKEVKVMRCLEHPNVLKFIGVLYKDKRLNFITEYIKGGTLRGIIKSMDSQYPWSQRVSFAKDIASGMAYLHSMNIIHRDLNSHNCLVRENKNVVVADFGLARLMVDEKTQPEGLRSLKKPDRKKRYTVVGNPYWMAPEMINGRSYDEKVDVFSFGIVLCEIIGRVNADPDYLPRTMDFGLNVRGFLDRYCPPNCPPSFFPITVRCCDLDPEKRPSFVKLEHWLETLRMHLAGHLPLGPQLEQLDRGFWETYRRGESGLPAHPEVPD
Nature of the experiment: KINOMEscan. Format: binding. The conditions noted are these: read-out: % Ctrl.

Another experiment addresses T15, NIK (Homo sapiens, UniProt Q99558).
T15 construct: purchased DiscoveRx KINOMEscan
Nature of the experiment: KINOMEscan. Format: binding. The following applies: read-out: % Ctrl.

The target in a further experiment is T16, CSNK1E (Homo sapiens, UniProt P49674).
T16 construct: purchased DiscoveRx KINOMEscan
Nature of the experiment: KINOMEscan. The conditions noted are these: read-out: % Ctrl. Format: binding.

The next experiment addresses T17, MEK4 (Homo sapiens, UniProt P45985).
T17 construct: purchased DiscoveRx KINOMEscan
Nature of the experiment: KINOMEscan. The following applies: read-out: % Ctrl. Format: binding.

The next experiment addresses T18, BUB1 (Homo sapiens, UniProt O43683).
T18 construct: purchased DiscoveRx KINOMEscan
Nature of the experiment: KINOMEscan. Format: binding. The conditions noted are these: read-out: % Ctrl.

In another experiment the target is T19, MST3 (Homo sapiens, UniProt Q9Y6E0).
T19 construct: purchased DiscoveRx KINOMEscan
Nature of the experiment: KINOMEscan. Format: binding. The following applies: read-out: % Ctrl.

Another experiment addresses T20, WNK2 (Homo sapiens, UniProt Q9Y3S1).
T20 construct: purchased DiscoveRx KINOMEscan
Nature of the experiment: KINOMEscan. Format: binding. The conditions noted are these: read-out: % Ctrl.

In another experiment the target is T21, KIT(L576P) (Homo sapiens, UniProt P10721, L576P).
T21 construct: purchased DiscoveRx KINOMEscan
Nature of the experiment: KINOMEscan. Format: binding. The following applies: read-out: % Ctrl.

The target of another experiment is T22, TRKB (Homo sapiens, UniProt Q16620).
T22 construct: purchased DiscoveRx KINOMEscan
Nature of the experiment: KINOMEscan. Format: binding. The following applies: read-out: % Ctrl.

In a further experiment the target is T23, DYRK1A (Homo sapiens, UniProt Q13627).
T23 construct: purchased DiscoveRx KINOMEscan
Nature of the experiment: KINOMEscan. Format: binding. The conditions noted are these: read-out: % Ctrl.

The next experiment deals with T24, MEK2 (Homo sapiens, UniProt P36507).
T24 construct: purchased DiscoveRx KINOMEscan
Nature of the experiment: KINOMEscan. Format: binding. The conditions noted are these: read-out: % Ctrl.

T1 sequence (P42336 whole entry): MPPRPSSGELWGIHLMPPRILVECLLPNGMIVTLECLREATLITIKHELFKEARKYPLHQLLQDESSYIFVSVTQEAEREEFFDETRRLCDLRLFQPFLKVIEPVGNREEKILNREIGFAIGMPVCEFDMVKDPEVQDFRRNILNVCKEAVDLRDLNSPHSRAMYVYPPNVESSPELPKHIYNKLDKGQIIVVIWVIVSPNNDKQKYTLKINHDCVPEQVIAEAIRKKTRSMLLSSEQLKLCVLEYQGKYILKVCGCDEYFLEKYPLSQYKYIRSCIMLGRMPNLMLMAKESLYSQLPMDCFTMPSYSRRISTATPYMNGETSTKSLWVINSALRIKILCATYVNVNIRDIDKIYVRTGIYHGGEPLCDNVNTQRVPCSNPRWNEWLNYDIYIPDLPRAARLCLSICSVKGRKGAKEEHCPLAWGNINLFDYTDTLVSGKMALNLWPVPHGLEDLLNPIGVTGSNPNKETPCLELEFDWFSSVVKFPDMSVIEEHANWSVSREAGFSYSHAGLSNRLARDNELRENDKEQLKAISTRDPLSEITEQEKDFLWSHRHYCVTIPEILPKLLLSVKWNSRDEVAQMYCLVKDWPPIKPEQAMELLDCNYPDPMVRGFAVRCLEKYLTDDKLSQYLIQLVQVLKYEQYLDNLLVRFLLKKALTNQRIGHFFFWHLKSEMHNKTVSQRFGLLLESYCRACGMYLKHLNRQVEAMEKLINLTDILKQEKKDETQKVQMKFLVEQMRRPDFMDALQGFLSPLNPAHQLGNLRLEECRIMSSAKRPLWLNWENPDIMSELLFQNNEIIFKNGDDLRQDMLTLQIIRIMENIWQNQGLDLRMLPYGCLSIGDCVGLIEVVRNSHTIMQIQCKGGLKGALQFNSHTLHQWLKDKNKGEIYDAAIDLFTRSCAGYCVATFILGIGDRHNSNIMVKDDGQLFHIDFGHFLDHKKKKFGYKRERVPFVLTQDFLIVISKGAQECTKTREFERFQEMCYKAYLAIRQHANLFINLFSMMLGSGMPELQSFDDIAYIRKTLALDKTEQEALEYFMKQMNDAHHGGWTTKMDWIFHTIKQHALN
T20 sequence (Q9Y3S1 whole entry): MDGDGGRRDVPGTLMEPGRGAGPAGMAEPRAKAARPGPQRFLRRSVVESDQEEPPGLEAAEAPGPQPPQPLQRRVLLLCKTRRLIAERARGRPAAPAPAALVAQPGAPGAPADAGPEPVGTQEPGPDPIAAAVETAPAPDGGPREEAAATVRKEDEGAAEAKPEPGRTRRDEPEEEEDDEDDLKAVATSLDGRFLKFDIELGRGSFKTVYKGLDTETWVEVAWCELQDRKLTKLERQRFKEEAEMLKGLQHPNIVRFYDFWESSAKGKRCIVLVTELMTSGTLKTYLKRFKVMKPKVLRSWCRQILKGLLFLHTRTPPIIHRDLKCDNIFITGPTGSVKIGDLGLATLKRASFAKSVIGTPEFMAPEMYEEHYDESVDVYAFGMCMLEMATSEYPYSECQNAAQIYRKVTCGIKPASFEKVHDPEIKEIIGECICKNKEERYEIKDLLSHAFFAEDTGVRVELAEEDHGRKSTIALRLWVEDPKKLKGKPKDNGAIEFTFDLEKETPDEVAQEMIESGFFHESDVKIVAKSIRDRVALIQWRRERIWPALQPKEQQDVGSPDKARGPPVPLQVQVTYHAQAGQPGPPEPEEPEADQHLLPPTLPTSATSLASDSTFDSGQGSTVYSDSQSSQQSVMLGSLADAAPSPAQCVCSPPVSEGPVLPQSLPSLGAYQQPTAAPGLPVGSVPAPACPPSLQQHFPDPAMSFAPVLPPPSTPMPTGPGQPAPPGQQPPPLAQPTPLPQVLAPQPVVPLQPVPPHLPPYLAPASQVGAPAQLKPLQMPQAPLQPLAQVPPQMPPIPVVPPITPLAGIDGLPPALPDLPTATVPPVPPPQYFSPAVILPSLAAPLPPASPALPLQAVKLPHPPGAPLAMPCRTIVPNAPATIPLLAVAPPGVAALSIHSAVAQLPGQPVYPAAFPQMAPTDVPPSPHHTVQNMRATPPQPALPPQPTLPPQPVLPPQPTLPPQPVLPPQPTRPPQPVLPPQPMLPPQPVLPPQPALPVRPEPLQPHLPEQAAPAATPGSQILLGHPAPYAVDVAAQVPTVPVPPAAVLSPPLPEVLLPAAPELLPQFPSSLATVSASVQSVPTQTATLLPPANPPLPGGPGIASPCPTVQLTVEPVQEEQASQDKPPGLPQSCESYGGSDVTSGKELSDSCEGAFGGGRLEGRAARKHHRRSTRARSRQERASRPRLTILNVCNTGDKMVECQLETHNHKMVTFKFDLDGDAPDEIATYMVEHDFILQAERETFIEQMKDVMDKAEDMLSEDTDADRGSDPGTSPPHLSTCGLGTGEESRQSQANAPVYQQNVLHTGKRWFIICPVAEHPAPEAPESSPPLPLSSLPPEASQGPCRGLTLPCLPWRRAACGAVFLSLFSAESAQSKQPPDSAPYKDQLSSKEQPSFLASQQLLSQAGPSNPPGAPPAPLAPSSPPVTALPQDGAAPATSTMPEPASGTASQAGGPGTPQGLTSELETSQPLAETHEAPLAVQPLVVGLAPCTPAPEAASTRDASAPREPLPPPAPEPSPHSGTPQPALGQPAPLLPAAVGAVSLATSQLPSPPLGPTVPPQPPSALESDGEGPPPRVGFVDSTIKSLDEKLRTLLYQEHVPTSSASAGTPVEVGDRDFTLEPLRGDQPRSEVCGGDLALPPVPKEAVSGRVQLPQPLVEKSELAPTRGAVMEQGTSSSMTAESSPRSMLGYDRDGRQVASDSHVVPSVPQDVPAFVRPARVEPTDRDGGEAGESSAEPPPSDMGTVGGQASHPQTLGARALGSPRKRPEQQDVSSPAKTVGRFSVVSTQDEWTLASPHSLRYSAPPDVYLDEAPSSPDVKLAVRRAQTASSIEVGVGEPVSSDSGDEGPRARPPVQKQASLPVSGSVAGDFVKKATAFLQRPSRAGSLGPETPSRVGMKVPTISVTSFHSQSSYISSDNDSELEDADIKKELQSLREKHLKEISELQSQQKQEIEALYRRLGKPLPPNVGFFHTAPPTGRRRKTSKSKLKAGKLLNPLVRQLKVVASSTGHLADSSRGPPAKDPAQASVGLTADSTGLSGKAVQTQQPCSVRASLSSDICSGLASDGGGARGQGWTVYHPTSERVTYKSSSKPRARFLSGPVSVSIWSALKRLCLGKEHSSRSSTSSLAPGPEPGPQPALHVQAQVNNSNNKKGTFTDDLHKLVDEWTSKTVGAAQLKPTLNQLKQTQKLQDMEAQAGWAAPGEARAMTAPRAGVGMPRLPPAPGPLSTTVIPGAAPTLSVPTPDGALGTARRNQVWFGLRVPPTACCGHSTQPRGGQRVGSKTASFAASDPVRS
T17 sequence (P45985 whole entry): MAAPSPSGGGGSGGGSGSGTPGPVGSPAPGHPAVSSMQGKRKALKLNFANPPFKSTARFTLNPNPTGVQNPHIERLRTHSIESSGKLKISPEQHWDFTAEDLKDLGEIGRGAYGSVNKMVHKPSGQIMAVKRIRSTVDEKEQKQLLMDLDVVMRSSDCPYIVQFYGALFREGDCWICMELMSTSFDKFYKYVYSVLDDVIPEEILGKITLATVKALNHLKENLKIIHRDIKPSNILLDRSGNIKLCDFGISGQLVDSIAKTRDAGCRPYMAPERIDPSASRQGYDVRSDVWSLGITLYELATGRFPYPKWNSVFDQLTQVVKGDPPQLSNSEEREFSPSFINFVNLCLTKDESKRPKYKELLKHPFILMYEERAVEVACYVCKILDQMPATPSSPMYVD

As to `Fc1ccc(-n2cc(CCCCN3CCC4(CC3)OCc3ccccc34)c3ccccc32)cc1` [siramesine], the efficacy in vivo entry in experiment [1] is reported as “ineffective in vivo”.

Regarding `CN1CCC(CNc2ccc3ncc(C(=O)Nc4cccc(OC(F)(F)F)c4)n3n2)CC1` [Cpd 2], the remaining binding at 1 µM at PIK3CA was 100%; at NEK7 it was 92%; on ABL1(F317L)-P it was 100%; at SNARK it was 89%; on MLCK, 100%; on PIM3, 18%. In addition, the remaining binding at 1 µM at JAK1(JH1D.-cat.) amounted to 100%; on LOK, 90%; on DDR1, 92%; at NEK6 it was 100%; on SIK2 it was 97%; on NEK3 it was 100%. Further, the remaining binding at 1 µM on EPHB3 turned out to be 86%; on RET it was 88%; at LIMK1, 79%; on NIK, 100%; at CSNK1E, 95%; on MEK4, 100%. Also, the remaining binding at 1 µM at BUB1 was 62%; on MST3, 96%; on WNK2, 77%; on KIT(L576P), 88%; on TRKB it was 89%; on DYRK1A, 100%. Besides, at MEK2, the remaining binding at 1 µM came to 90%. In the experiment on PDAC2 cells, the “percentage of CD133+ cells” value is given as “reduced”.

The record behind these values is article PMC7407272, “Induction of Lysosome Membrane Permeabilization as a Therapeutic Strategy to Target Pancreatic Cancer Stem Cells” (Cancers, 2020).
